# In ChEMBL document CHEMBL1143022, “Free radical trapping properties of several ethyl-substituted derivatives of 5-ethoxycarbonyl-5-methyl-1-pyrroline N-oxide (EMPO)” (Bioorg Med Chem, 2007):
# Assay: Partition coefficient, log P of the compound
# Type: physicochemical
# Details: octanol/water
row,SMILES,logP
1,CCOC(=O)C1(C)CCC=[N+]1[O-] (configuration not stated),0.15
2,CCOC(=O)C1(CC)C(C)CC=[N+]1[O-] (mixture of isomers),1.07
3,CCOC(=O)C1(C)C(CC)CC=[N+]1[O-] (mixture of isomers),1.34
4,CCOC(=O)[C@]1(C)C[C@@H](CC)C=[N+]1[O-] (relative stereo),1.67
5,CCOC(=O)[C@@]1(CC)C[C@H](C)C=[N+]1[O-] (relative stereo),1.48
6,CCOC(=O)[C@]1(C)C[C@H](CC)C=[N+]1[O-] (relative stereo),1.38
7,CCOC(=O)[C@@]1(CC)C[C@@H](C)C=[N+]1[O-] (relative stereo),1.34
